From patent US20090054332A1, “THOMBOPOIETIN PEPTIDE CONJUGATES” (CONJUCHEM BIOTECHNOLOGIES, INC., priority 2007, published 2009)
Where no end group is shown, it is not given here. Side-chain parts run from the residue outwards. [ ]: non-standard residue; d: D form. The star is where a group is joined. K(MPA) = lysine carrying the MPA reactive group; Propanoyl(3-maleimido) = O=C1C=CC(=O)N1CCC(=O)*; MPA = maleimido propionic acid reactive group; Aoc = NCCCCCCCC(=O)O

Test system: Platelet count
Assay: In vivo potency: platelet count after a single injection in CD-1 mice
Parameters: species or system mouse
Conditions: female CD-1 mice, single intravenous injection, 10 nmol/kg, 6 days postdose vs prior to dosing, n=4/group
Description: Ten to twelve-week old female CD-1 mice were administered with a single injection of the TPO derivatives indicated below at 10 nmol/kg (n=4/group). The DAC™ compounds in Table 4 are variants of TPO peptides modified to include an MPA reactive group, thereby forming an MPA-modified unconjugated peptides. The DAC™ compounds in Table 4 were administered intravenously. Albumin conjugates of the DAC™ compounds (also referred to herein as Preformed Conjugates (PC)) were injected subcutaneously. For each mouse, a blood sample was collected prior to dosing and 6 days postdose via the […]. Platelet counts were measured using an ABC Vet analyzer using standard procedures.
Platelet count fold increases are reported in Table 4 and 5 for MPA-modified TPO peptide and the albumin TPO conjugate, respectively.

| Substance | Platelet Count Fold Increase [fold] |
| --- | --- |
| (reactive group)-GGGGG-IEGPTLRQWLAARA-GGGGGGGG-LQGPTLRAWRAGMA ({Propanoyl(3-maleimido)}-GGGGGIEGPTLRQWLAARAGGGGGGGGLQGPTLRAWRAGMA) [MPA-modified form of SEQ ID NO: 185, unconjugated DAC compound] | <3 |
| (reactive group)-GGGGG-IEGPTLRQWLAARA-GGGGGGGG-IEGPTLRQWLAARA ({Propanoyl(3-maleimido)}-GGGGGIEGPTLRQWLAARAGGGGGGGGIEGPTLRQWLAARA) [MPA-modified form of SEQ ID NO: 168, unconjugated DAC compound] | 5.1 |
| LQGPTLRAWRAGMA-GGGGGGGG-IEGPTLRQWLAARA-(OA)-K-(reactive group) (LQGPTLRAWRAGMAGGGGGGGGIEGPTLRQWLAARA-{Aoc-K(MPA)}) [MPA-modified form of SEQ ID NO: 191, unconjugated DAC compound] | <3 |
| (reactive group)-GGGGG-ARAALWQRLTPGEI-GGGGGGGG-ARAALWQRLTPGEI ({Propanoyl(3-maleimido)}-GGGGGARAALWQRLTPGEIGGGGGGGGARAALWQRLTPGEI) [MPA-modified form of SEQ ID NO: 125, unconjugated DAC compound] | <3 |
| IEGPTLRQWLAARA-GGGGGGGG-IEGPTLRQWLAARA-(OA)-K-(reactive group) (IEGPTLRQWLAARAGGGGGGGGIEGPTLRQWLAARA-{Aoc-K(MPA)}) [MPA-modified form of SEQ ID NO: 190, unconjugated DAC compound] | 5.0 |
| Ac-ARAALWQRLTPGEI-GGGGGGGG-ARAALWQRLTPGEI-K(OA-reactive group) (Ac-ARAALWQRLTPGEIGGGGGGGGARAALWQRLTPGEIK([Aoc-Propanoyl(3-maleimido)])) [MPA-modified form of SEQ ID NO: 127, unconjugated DAC compound] | <3 |
| Ac-ARAALWQRLTPGEI-GGGGGGGG-IEGPTLRQWLAARAI-K(OA-reactive group) (Ac-ARAALWQRLTPGEIGGGGGGGGIEGPTLRQWLAARAIK([Aoc-Propanoyl(3-maleimido)])) [MPA-modified form of SEQ ID NO: 123, unconjugated DAC compound] | <3 |
| (reactive group)-GGGGG-LQGPTLRAWRAGMA-GGGGGGGG-IEGPTLRQWLAARA ({Propanoyl(3-maleimido)}-GGGGGLQGPTLRAWRAGMAGGGGGGGGIEGPTLRQWLAARA) [MPA-modified form of SEQ ID NO: 184, unconjugated DAC compound] | <3 |
| (reactive group)-GGGGG-IEGPTLRQWLAARA-GGGGGGGG-ARAALWQRLTPGEI ({Propanoyl(3-maleimido)}-GGGGGIEGPTLRQWLAARAGGGGGGGGARAALWQRLTPGEI) [MPA-modified form of SEQ ID NO: 117, unconjugated DAC compound] | <3 |
| IEGPTLRQWLAARA-GGGGGGGG-IEGPTLRQWLAARA-K-OA-OA-(reactive group) (IEGPTLRQWLAARAGGGGGGGGIEGPTLRQWLAARAK-{Aoc-Aoc-MPA}; not fully specified) [MPA-modified form of SEQ ID NO: 170, unconjugated DAC compound] | 4.7 |
| (reactive group)-GGGGG-ARAALWQRLTPGEI-GGGGGGGG-IEGPTLRQWLAARA ({Propanoyl(3-maleimido)}-GGGGGARAALWQRLTPGEIGGGGGGGGIEGPTLRQWLAARA) [MPA-modified form of SEQ ID NO: 121, unconjugated DAC compound] | <3 |
| IEGPTLRQWLAARA-GGGGGGGG-IEGPTLRQWLAARA-OA-OA-K-(reactive group) (IEGPTLRQWLAARAGGGGGGGGIEGPTLRQWLAARA-{Aoc-Aoc-K(MPA)}) [MPA-modified form of SEQ ID NO: 169, unconjugated DAC compound] | 4.4 |

Same assay, conditions: female CD-1 mice, single subcutaneous injection of preformed albumin conjugate, 10 nmol/kg, 6 days postdose vs prior to dosing, n=4/group

| Substance | Platelet Count Fold Increase [fold] |
| --- | --- |
| Albumin-conjugate of SEQ ID NO: 169: Preformed albumin conjugate (PC) of the MPA-modified TPO peptide of SEQ ID NO: 169 (IEGPTLRQWLAARAGGGGGGGGIEGPTLRQWLAARA-{Aoc-Aoc-MPA}; also: MPA-linked preformed albumin conjugate, site not given here) | 3.8 |
| Albumin-conjugate of SEQ ID NO: 170: Preformed albumin conjugate (PC) of the MPA-modified TPO peptide of SEQ ID NO: 170 (IEGPTLRQWLAARAGGGGGGGGIEGPTLRQWLAARAK[Aoc]; not fully specified; printed as IEGPTLRQWLAARA-GGGGGGGG-IEGPTLRQWLAARA-K-OA-; also: MPA-linked preformed albumin conjugate, site not given here) | 4.4 |
| Albumin-conjugate of SEQ ID NO: 168: Preformed albumin conjugate (PC) of the MPA-modified TPO peptide of SEQ ID NO: 168 ({Propanoyl(3-maleimido)}-GGGGGIEGPTLRQWLAARAGGGGGGGGIEGPTLRQWLAARA; also: MPA-linked preformed albumin conjugate, site not given here) | 4.3 |

Test system: not given
Assay: not given
Conditions: phase I trials, adult and pediatric populations; cited from earlier work

| Substance | Safety of administration |
| --- | --- |
| rhTPO: full length, glycosylated molecule known as recombinant human thrombopoietin | safe administration |
